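Cells were grown in 96-well plates and exposed to each compound for 48 hours at five concentrations; endpoints were interpolated linearly between bracketing concentrations, or set to the highest concentration if not reached. GI50 is the concentration that inhibits growth by half.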 Activity calls are given as the source filed them. Cut-off read from the data, not from the text of the source: active = GI50 up to about 1.1 µM and inactive = higher.
Key:
Assay in all cases: NCI-60 cell line screen, 48 h
ACHN = tested on: ACHN
CAKI-1 = tested on: CAKI-1
COLO 205 = tested on: COLO 205
HCC 2998 = tested on: HCC 2998
HCT-116 = tested on: HCT-116
HOP-62 = tested on: HOP-62
MOLT-4 = tested on: MOLT-4
NCI-H226 = tested on: NCI-H226
NCI-H460 = tested on: NCI-H460
OVCAR-4 = tested on: OVCAR-4
OVCAR-5 = tested on: OVCAR-5
SF-295 = tested on: SF-295
SK-MEL-5 = tested on: SK-MEL-5
TK-10 = tested on: TK-10
UACC-257 = tested on: UACC-257
UACC-62 = tested on: UACC-62

Compound	GI50 (ACHN)	GI50 (CAKI-1)	GI50 (COLO 205)	GI50 (HCC 2998)	GI50 (HCT-116)	GI50 (HOP-62)	GI50 (MOLT-4)	GI50 (NCI-H226)	GI50 (NCI-H460)	GI50 (OVCAR-4)	GI50 (OVCAR-5)	GI50 (SF-295)	GI50 (SK-MEL-5)	GI50 (TK-10)	GI50 (UACC-257)	GI50 (UACC-62)
Cc1cc(C(=C2C=CC(=[N+](C)C)C=C2)c2ccc([N+](C)(C)C)cc2)ccc1N(C)C	10.7 µM (inactive)	18.2 µM (inactive)	10.1 µM (inactive)	13.8 µM (inactive)	3.23 µM (inactive)	25.2 µM (inactive)	4.28 µM (inactive)	16 µM (inactive)	3.98 µM (inactive)	15.8 µM (inactive)	21.9 µM (inactive)	5.2 µM (inactive)	11.8 µM (inactive)	1.57 µM (inactive)	12.1 µM (inactive)	5.55 µM (inactive)
Cc1cc(C)nc(NS(=O)(=O)c2ccc(NC(=O)c3cccc4c(N)c5ccccc5nc34)cc2)n1	> 100 µM (inactive)	> 100 µM (inactive)	> 100 µM (inactive)	67.1 µM (inactive)	90.6 µM (inactive)	> 100 µM (inactive)	35 µM (inactive)	> 100 µM (inactive)	> 100 µM (inactive)	> 100 µM (inactive)	> 100 µM (inactive)	> 100 µM (inactive)	> 100 µM (inactive)	> 100 µM (inactive)	> 100 µM (inactive)	> 100 µM (inactive)
CC(=O)Nc1ccc2c(c1)C(=O)c1ccccc1-2	> 100 µM (inactive)		> 100 µM (inactive)	> 100 µM (inactive)	> 100 µM (inactive)	> 100 µM (inactive)	> 100 µM (inactive)	> 100 µM (inactive)	> 100 µM (inactive)			> 100 µM (inactive)		> 100 µM (inactive)	> 100 µM (inactive)	> 100 µM (inactive)
Cc1ccc([N+]2=NC(c3ccc([N+](=O)[O-])cc3)=NN(c3ccccc3)C2)cc1	> 100 µM (inactive)		> 100 µM (inactive)	> 100 µM (inactive)	59.7 µM (inactive)	> 100 µM (inactive)	21 µM (inactive)	> 100 µM (inactive)	41 µM (inactive)	17.6 µM (inactive)	> 100 µM (inactive)	53.3 µM (inactive)	33.2 µM (inactive)	> 100 µM (inactive)	47.1 µM (inactive)	
CC(CN(C)C)/C(=N\Nc1ccccc1)c1ccccc1 (stereo not given)	0.242 µM (active)		1.03 µM (active)		0.415 µM (active)	0.767 µM (active)	0.184 µM (active)		0.171 µM (active)	0.794 µM (active)	1.38 µM (inactive)	0.0436 µM (active)	3.3 µM (inactive)	1.02 µM (active)	2.12 µM (inactive)	0.0755 µM (active)
Cc1ccc(S(=O)(=O)CC(=O)CC(=O)C(=O)Nc2cccc(C(F)(F)F)c2)cc1	> 100 µM (inactive)	> 100 µM (inactive)			44.4 µM (inactive)		> 100 µM (inactive)	> 100 µM (inactive)				> 100 µM (inactive)	> 100 µM (inactive)	> 100 µM (inactive)	> 100 µM (inactive)	> 100 µM (inactive)
COc1ccc(S(=O)(=O)N/N=C\c2cc([N+](=O)[O-])cc(I)c2O)c(OC)c1OC	29.9 µM (inactive)	30.1 µM (inactive)	21.4 µM (inactive)	31.4 µM (inactive)			25.1 µM (inactive)	17.3 µM (inactive)	33 µM (inactive)	28.4 µM (inactive)	32.4 µM (inactive)	30.6 µM (inactive)	21.2 µM (inactive)	40.4 µM (inactive)	26.7 µM (inactive)	21.9 µM (inactive)
O=C(Nc1ccc(Nc2ccc(NC(=O)c3ccccc3)c3c2C(=O)c2ccccc2C3=O)c2c1C(=O)c1ccccc1C2=O)c1ccccc1	> 100 µM (inactive)	> 100 µM (inactive)	> 100 µM (inactive)	> 100 µM (inactive)	> 100 µM (inactive)	> 100 µM (inactive)	> 100 µM (inactive)	> 100 µM (inactive)	> 100 µM (inactive)	> 100 µM (inactive)			> 100 µM (inactive)	> 100 µM (inactive)	> 100 µM (inactive)	> 100 µM (inactive)
Cc1c(/C=N/NC(=O)c2ccc(Cl)cc2)c(=O)n(-c2ccccc2)n1C	> 100 µM (inactive)		> 100 µM (inactive)	> 100 µM (inactive)	> 100 µM (inactive)	> 100 µM (inactive)	> 100 µM (inactive)	> 100 µM (inactive)	> 100 µM (inactive)	> 100 µM (inactive)		> 100 µM (inactive)		> 100 µM (inactive)	> 100 µM (inactive)	> 100 µM (inactive)
CC(=O)O[C@]1(C)OC(=O)[C@@H](C)N1[N+](=O)[O-]	60 µM (inactive)		> 100 µM (inactive)	> 100 µM (inactive)	> 100 µM (inactive)	> 100 µM (inactive)	45.9 µM (inactive)	> 100 µM (inactive)	39.2 µM (inactive)	> 100 µM (inactive)	> 100 µM (inactive)	> 100 µM (inactive)	> 100 µM (inactive)	> 100 µM (inactive)	> 100 µM (inactive)	> 100 µM (inactive)
CC(=O)CC(=O)CCCC(=O)Nc1ccc(Cl)cc1Cl	> 100 µM (inactive)	> 100 µM (inactive)	> 100 µM (inactive)	> 100 µM (inactive)	> 100 µM (inactive)	> 100 µM (inactive)	> 100 µM (inactive)	> 100 µM (inactive)	> 100 µM (inactive)	> 100 µM (inactive)	> 100 µM (inactive)	> 100 µM (inactive)		> 100 µM (inactive)	> 100 µM (inactive)	> 100 µM (inactive)
Cc1cccc(NC(=O)CC#N)c1Cl	> 100 µM (inactive)	> 100 µM (inactive)			> 100 µM (inactive)		> 100 µM (inactive)	> 100 µM (inactive)				> 100 µM (inactive)		> 100 µM (inactive)	> 100 µM (inactive)	> 100 µM (inactive)
O=C(Nc1nc2ccc([N+](=O)[O-])cc2s1)C(=O)C(C(=O)c1ccncc1)C1OC(=O)c2ccccc21 (stereo not given)	> 100 µM (inactive)	> 100 µM (inactive)	> 100 µM (inactive)	> 100 µM (inactive)	> 100 µM (inactive)	> 100 µM (inactive)	> 100 µM (inactive)	> 100 µM (inactive)		> 100 µM (inactive)	> 100 µM (inactive)				> 100 µM (inactive)	> 100 µM (inactive)
O=C1Cc2ccccc2CCc2ccsc21		> 100 µM (inactive)	> 100 µM (inactive)	> 100 µM (inactive)	> 100 µM (inactive)		> 100 µM (inactive)	> 100 µM (inactive)	> 100 µM (inactive)	> 100 µM (inactive)	31.3 µM (inactive)	> 100 µM (inactive)	> 100 µM (inactive)	> 100 µM (inactive)	> 100 µM (inactive)	
CC1=C(C(=O)Nc2ccccc2C)C(c2ccc([N+](=O)[O-])cc2)C(C(=O)Nc2ccccc2C)=C(C)N1	30.2 µM (inactive)	36.6 µM (inactive)	29.9 µM (inactive)	47.3 µM (inactive)		> 100 µM (inactive)	25.3 µM (inactive)	> 100 µM (inactive)	44.9 µM (inactive)	41.8 µM (inactive)	> 100 µM (inactive)	58.2 µM (inactive)	11.3 µM (inactive)	46.1 µM (inactive)	55.3 µM (inactive)	43.9 µM (inactive)
Clc1ccccc1C(n1cc(Br)cn1)n1cc(Br)cn1	16.5 µM (inactive)	19 µM (inactive)		> 10 µM (inactive)	15 µM (inactive)	25.5 µM (inactive)	14.2 µM (inactive)	> 10 µM (inactive)	14.7 µM (inactive)	> 100 µM (inactive)	11.4 µM (inactive)	16.2 µM (inactive)	11 µM (inactive)	23.6 µM (inactive)	14.7 µM (inactive)	> 10 µM (inactive)
COc1cc2c(cc1OC)C(C(=O)O)C(c1ccccc1)N(C)C2=O (stereo not given)	> 100 µM (inactive)	> 100 µM (inactive)	> 100 µM (inactive)	> 100 µM (inactive)	> 100 µM (inactive)	> 100 µM (inactive)	> 100 µM (inactive)		> 100 µM (inactive)	> 100 µM (inactive)	> 100 µM (inactive)	> 100 µM (inactive)	> 100 µM (inactive)	> 100 µM (inactive)	> 100 µM (inactive)	> 100 µM (inactive)
COc1cc([C@@H]2OC(=O)C3C2C(=O)O[C@H]3c2cc(OC)c(OC)c(OC)c2)cc(OC)c1OC (stereo not given in full)	> 100 µM (inactive)		> 100 µM (inactive)	> 100 µM (inactive)	> 100 µM (inactive)	> 100 µM (inactive)	> 100 µM (inactive)	38.8 µM (inactive)	> 100 µM (inactive)	> 100 µM (inactive)		> 100 µM (inactive)	> 100 µM (inactive)	> 100 µM (inactive)	> 100 µM (inactive)	> 100 µM (inactive)
CCN(CC)CCOC(=O)/C(=C/c1ccc(OC)cc1)c1cc(OC)c(OC)c(OC)c1	7.67 µM (inactive)	4.42 µM (inactive)	5.75 µM (inactive)		5.45 µM (inactive)	3.8 µM (inactive)	24.5 µM (inactive)	13.5 µM (inactive)	9.66 µM (inactive)	31.4 µM (inactive)	16.4 µM (inactive)	1.83 µM (inactive)	3.26 µM (inactive)	20.3 µM (inactive)	5.46 µM (inactive)	3.71 µM (inactive)

From ChEMBL document CHEMBL1201862, “PubChem BioAssay data set” (2004)
